Assay results from ChEMBL document CHEMBL4610065, “Isolation and Structural Characterization of Specific Bacterial β-Glucuronidase Inhibitors from Noni (Morinda citrifolia) Fruits” (J Nat Prod, 2020).
The source made the active and inactive calls. No cut-off for these calls is given here.

Assays:
Beta-glucuronidase = Beta-glucuronidase (Escherichia coli (strain K12), UniProt P05804); experiment: Inhibition of Escherichia coli beta-glucuronidase using 4-methylumbelliferyl-beta-D-glucuronide hydrate as substrate preincubated for 5 mins followed by substrate addition and measured after 30 mins by fluorescence method
Beta-glucuronidase, sequence (P05804 whole entry): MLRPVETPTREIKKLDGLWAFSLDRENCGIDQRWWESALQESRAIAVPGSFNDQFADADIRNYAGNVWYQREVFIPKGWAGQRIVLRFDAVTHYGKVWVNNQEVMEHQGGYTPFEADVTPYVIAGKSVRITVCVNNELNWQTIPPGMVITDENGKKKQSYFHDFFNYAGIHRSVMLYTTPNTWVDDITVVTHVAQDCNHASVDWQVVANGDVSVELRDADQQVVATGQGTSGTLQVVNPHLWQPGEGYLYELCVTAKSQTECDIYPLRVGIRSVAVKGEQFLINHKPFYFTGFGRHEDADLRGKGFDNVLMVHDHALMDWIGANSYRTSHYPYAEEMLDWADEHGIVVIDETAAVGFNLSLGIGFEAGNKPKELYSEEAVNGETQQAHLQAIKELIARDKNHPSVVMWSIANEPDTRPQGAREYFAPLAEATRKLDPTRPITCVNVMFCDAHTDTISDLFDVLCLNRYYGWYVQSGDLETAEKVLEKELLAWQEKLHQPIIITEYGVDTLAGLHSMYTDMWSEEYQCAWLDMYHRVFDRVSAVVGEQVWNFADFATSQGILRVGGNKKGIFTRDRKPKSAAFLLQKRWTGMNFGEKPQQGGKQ

Pancreatic alpha-amylase [1] = target: T1, Pancreatic alpha-amylase (Sus scrofa, UniProt P00690); experiment: Inhibition of porcine pancreatic alpha-amylase at 0.1 to 0.5 mg/ml using potato starch as substrate preincubated for 5 mins followed by substrate addition and measured after 3 mins by DNS method; conditions: pig, 0.05 h
T1 sequence (P00690 whole entry): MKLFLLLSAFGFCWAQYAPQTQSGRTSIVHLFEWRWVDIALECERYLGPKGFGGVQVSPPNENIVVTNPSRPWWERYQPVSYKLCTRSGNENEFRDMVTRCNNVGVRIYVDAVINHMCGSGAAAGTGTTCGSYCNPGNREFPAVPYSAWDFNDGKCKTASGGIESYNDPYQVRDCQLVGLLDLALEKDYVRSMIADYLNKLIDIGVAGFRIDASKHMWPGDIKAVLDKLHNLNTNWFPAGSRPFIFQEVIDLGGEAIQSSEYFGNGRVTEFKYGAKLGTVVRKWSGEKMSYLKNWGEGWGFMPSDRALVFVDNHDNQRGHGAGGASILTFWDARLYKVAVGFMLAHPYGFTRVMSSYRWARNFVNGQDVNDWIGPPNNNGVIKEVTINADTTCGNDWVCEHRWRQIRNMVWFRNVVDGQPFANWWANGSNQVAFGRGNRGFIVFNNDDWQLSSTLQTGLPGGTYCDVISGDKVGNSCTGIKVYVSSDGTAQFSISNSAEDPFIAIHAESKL

Pancreatic alpha-amylase [2] = target: T1, Pancreatic alpha-amylase; experiment: Inhibition of porcine pancreatic alpha-amylase at 1 mg/ml using potato starch as substrate preincubated for 5 mins followed by substrate addition and measured after 3 mins by DNS method relative to control; conditions: pig, 0.05 h
Rattus norvegicus [3] = organism: Rattus norvegicus; experiment: Inhibition of rat intestinal alpha-glucosidase at 0.5 mg/ml using pNPG as substrate preincubated for 3 mins followed by substrate addition and measured after 30 mins
Rattus norvegicus [4] = organism: Rattus norvegicus; experiment: Inhibition of rat intestinal alpha-glucosidase at 1 mg/ml using pNPG as substrate preincubated for 3 mins followed by substrate addition and measured after 30 mins relative to control
[5] = target: Beta-glucuronidase (Escherichia coli (strain K12)) (UniProt P05804); experiment: Potency index, ratio of DSA IC50 to compound IC50 for inhibition of Escherichia coli beta-glucuronidase using 4-methylumbelliferyl-beta-D-glucuronide hydrate as substrate preincubated for 5 mins followed by substrate addition and measured after 30 mins by fluorescence method
Beta-glucuronidase (Escherichia coli (strain K12)), sequence (P05804 whole entry, looked up): as the sequence (P05804 whole entry) above

[6] = target: T2, Pancreatic triacylglycerol lipase (Sus scrofa, UniProt P00591); experiment: Inhibition of porcine pancreatic lipase at 0.1 mg/ml using 4-MU oleate as substrate incubated for 30 min by fluorescence method relative to control; conditions: pig, 0.5 h
T2 sequence (P00591 whole entry): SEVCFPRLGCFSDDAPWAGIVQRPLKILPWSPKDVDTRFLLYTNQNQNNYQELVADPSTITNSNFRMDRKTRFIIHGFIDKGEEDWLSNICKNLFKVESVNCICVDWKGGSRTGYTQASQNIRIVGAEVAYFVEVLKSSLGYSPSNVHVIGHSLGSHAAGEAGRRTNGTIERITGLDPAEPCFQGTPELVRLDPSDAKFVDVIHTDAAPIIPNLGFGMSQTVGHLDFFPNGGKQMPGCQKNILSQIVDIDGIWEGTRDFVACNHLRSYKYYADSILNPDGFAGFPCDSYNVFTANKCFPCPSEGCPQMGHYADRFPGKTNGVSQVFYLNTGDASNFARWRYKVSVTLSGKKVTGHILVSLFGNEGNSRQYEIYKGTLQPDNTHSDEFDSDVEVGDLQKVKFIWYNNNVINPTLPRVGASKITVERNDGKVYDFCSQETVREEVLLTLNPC

[7] = target: T2, Pancreatic triacylglycerol lipase; experiment: Inhibition of porcine pancreatic lipase up to 1 mg/ml using 4-MU oleate as substrate incubated for 30 min by fluorescence method relative to control; conditions: pig, 0.5 h
[8] = target: T2, Pancreatic triacylglycerol lipase; experiment: Inhibition of porcine pancreatic lipase at 5 ug/ml using 4-MU oleate as substrate incubated for 30 min by fluorescence method relative to control; conditions: pig, 0.5 h
Pancreatic alpha-amylase [9] = target: T1, Pancreatic alpha-amylase; experiment: Inhibition of porcine pancreatic alpha-amylase at 10 ug/ml using potato starch as substrate preincubated for 5 mins followed by substrate addition and measured after 3 mins by DNS method relative to control; conditions: pig, 0.05 h
Rattus norvegicus [10] = organism: Rattus norvegicus; experiment: Inhibition of rat intestinal alpha-glucosidase at 0.02 mM using pNPG as substrate preincubated for 3 mins followed by substrate addition and measured after 30 mins relative to control

IC50 (Beta-glucuronidase)	inhibition (INH) (Pancreatic alpha-amylase [1])	inhibition (INH) (Pancreatic alpha-amylase [2])	inhibition (Rattus norvegicus [3])	inhibition (Rattus norvegicus [4])	Ratio IC50 [5]	inhibition (INH) [6]	inhibition (INH) [7]	SMILES	inhibition (INH) [8]	inhibition (INH) (Pancreatic alpha-amylase [9])	inhibition (Rattus norvegicus [10])
0.62 µM	Not Active	21%	inactive	inactive	3.5 to 39.5	< 56%	85 to 93%	OC[C@H]1Oc2ccc([C@@H]3OC[C@@H]4[C@H]3CO[C@H]4c3ccc4c(c3)O[C@H](c3ccc(O)c(O)c3)[C@@H](CO)O4)cc2O[C@@H]1c1ccc(O)c(O)c1			
								CCCCCCCCCCC[C@@H](C[C@@H]1OC(=O)[C@H]1CCCCCC)OC(=O)[C@H](CC(C)C)NC=O [ORLISTAT]	96%		
0.95 µM	Not Active	21%	inactive	inactive	3.5 to 39.5	< 56%	85 to 93%	OC[C@@H]1Oc2cc([C@@H]3OC[C@@H]4[C@H]3CO[C@H]4c3ccc4c(c3)O[C@@H](CO)[C@H](c3ccc(O)c(O)c3)O4)ccc2O[C@H]1c1ccc(O)c(O)c1			
4.02 µM	Not Active	21%	inactive	inactive	3.5 to 39.5	< 56%	85 to 93%	OC/C=C/c1ccc2c(c1)O[C@@H](CO)[C@H](c1ccc3c(c1)O[C@H](CO)[C@@H](c1ccc(O)c(O)c1)O3)O2			
								C[C@H]1O[C@H](O[C@H]2[C@H](O)[C@@H](O)[C@@H](O[C@H]3[C@H](O)[C@@H](O)C(O)O[C@@H]3CO)O[C@@H]2CO)[C@H](O)[C@@H](O)[C@@H]1N[C@H]1C=C(CO)[C@@H](O)[C@H](O)[C@H]1O (stereo not given in full) [ACARBOSE]		94%	80%
6.91 µM	Not Active		inactive	12%	3.5 to 39.5	< 56%	85 to 93%	OC/C=C/c1ccc2c(c1)O[C@H](c1ccc3c(c1)O[C@@H](c1ccc(O)c(O)c1)[C@H](CO)O3)[C@@H](CO)O2			

SMILES	IC50 (Beta-glucuronidase)	inhibition (INH) (Pancreatic alpha-amylase [1])	inhibition (INH) (Pancreatic alpha-amylase [2])	inhibition (Rattus norvegicus [3])	inhibition (Rattus norvegicus [4])	Ratio IC50 [5]	inhibition (INH) [6]	inhibition (INH) [7]	inhibition (INH) [8]	inhibition (INH) (Pancreatic alpha-amylase [9])	inhibition (Rattus norvegicus [10])
O=C(O)[C@@H](O)[C@H]1OC(=O)[C@H](O)[C@H]1O	24.3 µM										
